Earlier results, collected in patent US7010431B2, “Method for effecting computer implemented decision-support in the selection of the drug therapy of patients having a viral disease” (F. Hoffman-LaRoche Ltd., priority 2000, dated 2006).
Where two headings read alike, the source gives them in different places.

How the values were obtained:
[1] = system: HIV reverse transcriptase (RT) substitutions; parameters: key: 0 (low resistance); 3 (high resistance)
[2] = system: HIV protease (P) substitutions; parameters: key: 0 (low resistance); 3 (high resistance)
[3] = substitution 48 V, drug level 100

Nc1ccn([C@@H]2CS[C@H](CO)O2)c(=O)n1 [3TC]
resistance @ level ([1]; substitution 69SS + 215, drug level 100): 2

Nc1nc(NC2CC2)c2ncn([C@H]3C=C[C@@H](CO)C3)c2n1 [ABC]
resistance @ level ([1]; substitution 184 + two of (41, 67, 70, 210, 215, 219), drug level 10000): 2

CC(C)CN(C[C@@H](O)[C@H](Cc1ccccc1)NC(=O)O[C@H]1CCOC1)S(=O)(=O)c1ccc(N)cc1 [AMP]
resistance @ level ([2]; substitution 90M/I, drug level 10000): 1

Cc1cn([C@H]2C=C[C@@H](CO)O2)c(=O)[nH]c1=O [D4T]
resistance @ level ([1]; substitution three of (41, 67, 70, 210, 215, 219), drug level 100): 1

CC(C)(C)NC(=O)[C@@H]1C[C@@H]2CCCC[C@@H]2CN1C[C@@H](O)[C@H](Cc1ccccc1)NC(=O)[C@H](CC(N)=O)NC(=O)c1ccc2ccccc2n1 [FTV]
resistance @ level [2, 3]: 1

CC(C)(C)NC(=O)[C@@H]1CN(Cc2cccnc2)CCN1C[C@@H](O)C[C@@H](Cc1ccccc1)C(=O)N[C@H]1c2ccccc2C[C@H]1O [IND]
resistance @ level [2, 3]: 0 | resistance @ level ([2]; substitution 82A/F/T/S, drug level 100): 1

Cc1c(O)cccc1C(=O)N[C@@H](CSc1ccccc1)[C@H](O)CN1C[C@H]2CCCC[C@H]2C[C@H]1C(=O)NC(C)(C)C [NFV]
resistance @ level ([2]; substitution 84 + 90 + 46, drug level 100): 3

Cc1ccnc2c1NC(=O)c1cccnc1N2C1CC1 [NVP]
resistance @ level ([1]; substitution 236, drug level 100): 0

Cc1cn([C@H]2C[C@H](N=[N+]=[N-])[C@@H](CO)O2)c(=O)[nH]c1=O [ZDV]
resistance @ level ([1]; substitution 215Y/F + 41, drug level 100): 3
